Columns and labels:
Assay in all cases: cells
Assay type in all cases: functional, cell-based, Homo sapiens
DK-MG = conditions: Homo sapiens, DK-MG
Description: SANGER: Inhibition of human DK-MG cell growth in a cell viability assay.

DMS-153 = conditions: Homo sapiens, DMS-153
Description: SANGER: Inhibition of human DMS-153 cell growth in a cell viability assay.

EB-3 = conditions: Homo sapiens, EB-3
Description: SANGER: Inhibition of human EB-3 cell growth in a cell viability assay.

ECC4 = conditions: Homo sapiens, ECC4
Description: SANGER: Inhibition of human ECC4 cell growth in a cell viability assay.

ESS-1 = conditions: Homo sapiens, ESS-1
Description: SANGER: Inhibition of human ESS-1 cell growth in a cell viability assay.

FaDu = conditions: Homo sapiens, FaDu
Description: SANGER: Inhibition of human FADU cell growth in a cell viability assay.

G-401 = conditions: Homo sapiens, G-401
Description: SANGER: Inhibition of human G-401 cell growth in a cell viability assay.

GDM-1 = conditions: Homo sapiens, GDM-1
Description: SANGER: Inhibition of human GDM-1 cell growth in a cell viability assay.

H4 = conditions: Homo sapiens, H4
Description: SANGER: Inhibition of human H4 cell growth in a cell viability assay.

HCC1806 = conditions: Homo sapiens, HCC1806
Description: SANGER: Inhibition of human HCC1806 cell growth in a cell viability assay.

HPAF-II = conditions: Homo sapiens, HPAF-II
Description: SANGER: Inhibition of human HPAF-II cell growth in a cell viability assay.

HTC-C3 = conditions: Homo sapiens, HTC-C3
Description: SANGER: Inhibition of human HTC-C3 cell growth in a cell viability assay.

JIYOYE = conditions: Homo sapiens, JIYOYE
Description: SANGER: Inhibition of human JiyoyeP-2003 cell growth in a cell viability assay.

KARPAS-422 = conditions: Homo sapiens, KARPAS-422
Description: SANGER: Inhibition of human KARPAS-422 cell growth in a cell viability assay.

KMS-12-PE = conditions: Homo sapiens, KMS-12-PE
Description: SANGER: Inhibition of human KMS-12-PE cell growth in a cell viability assay.

KYSE-140 = conditions: Homo sapiens, KYSE-140
Description: SANGER: Inhibition of human KYSE-140 cell growth in a cell viability assay.

KYSE-450 = conditions: Homo sapiens, KYSE-450
Description: SANGER: Inhibition of human KYSE-450 cell growth in a cell viability assay.

LK-2 = conditions: Homo sapiens, LK-2
Description: SANGER: Inhibition of human LK-2 cell growth in a cell viability assay.

LP-1 = conditions: Homo sapiens, LP-1
Description: SANGER: Inhibition of human LP-1 cell growth in a cell viability assay.

MC-IXC = conditions: Homo sapiens, MC-IXC
Description: SANGER: Inhibition of human MC-IXC cell growth in a cell viability assay.

MG-63 = conditions: Homo sapiens, MG-63
Description: SANGER: Inhibition of human MG-63 cell growth in a cell viability assay.

MKN-45 = conditions: Homo sapiens, MKN-45
Description: SANGER: Inhibition of human MKN45 cell growth in a cell viability assay.

NCI-H1792 = conditions: Homo sapiens, NCI-H1792
Description: SANGER: Inhibition of human NCI-H1792 cell growth in a cell viability assay.

NCI-H1793 = conditions: Homo sapiens, NCI-H1793
Description: SANGER: Inhibition of human NCI-H1793 cell growth in a cell viability assay.

NCI-H2009 = conditions: Homo sapiens, NCI-H2009
Description: SANGER: Inhibition of human NCI-H2009 cell growth in a cell viability assay.

NCI-H2122 = conditions: Homo sapiens, NCI-H2122
Description: SANGER: Inhibition of human NCI-H2122 cell growth in a cell viability assay.

NCI-H2405 = conditions: Homo sapiens, NCI-H2405
Description: SANGER: Inhibition of human NCI-H2405 cell growth in a cell viability assay.

NCI-H460 = conditions: Homo sapiens, NCI-H460
Description: SANGER: Inhibition of human NCI-H460 cell growth in a cell viability assay.

NCI-H650 = conditions: Homo sapiens, NCI-H650
Description: SANGER: Inhibition of human NCI-H650 cell growth in a cell viability assay.

P12-Ichikawa = conditions: Homo sapiens, P12-Ichikawa
P31-FUJ = conditions: Homo sapiens, P31-FUJ
Description: SANGER: Inhibition of human P31-FUJ cell growth in a cell viability assay.

RT-112 = conditions: Homo sapiens, RT-112
Description: SANGER: Inhibition of human RT-112 cell growth in a cell viability assay.

SK-N-AS = conditions: Homo sapiens, SK-N-AS
Description: SANGER: Inhibition of human SK-N-AS cell growth in a cell viability assay.

SNU-C1 = conditions: Homo sapiens, SNU-C1
Description: SANGER: Inhibition of human SNU-C1 cell growth in a cell viability assay.

SW1088 = conditions: Homo sapiens, SW1088
Description: SANGER: Inhibition of human SW1088 cell growth in a cell viability assay.

SW1710 = conditions: Homo sapiens, SW1710
Description: SANGER: Inhibition of human SW1710 cell growth in a cell viability assay.

SW837 = conditions: Homo sapiens, SW837
Description: SANGER: Inhibition of human SW837 cell growth in a cell viability assay.

769-P = conditions: Homo sapiens, 769-P
Description: SANGER: Inhibition of human 769-P cell growth in a cell viability assay.

AGS = conditions: Homo sapiens, AGS
Description: SANGER: Inhibition of human AGS cell growth in a cell viability assay.

ARH-77 = conditions: Homo sapiens, ARH-77
Description: SANGER: Inhibition of human ARH-77 cell growth in a cell viability assay.

BOKU = conditions: Homo sapiens, BOKU
Description: SANGER: Inhibition of human BOKU cell growth in a cell viability assay.

CAL-27 = conditions: Homo sapiens, CAL-27
Description: SANGER: Inhibition of human CAL-27 cell growth in a cell viability assay.

CAL-39 = conditions: Homo sapiens, CAL-39
Description: SANGER: Inhibition of human CAL-39 cell growth in a cell viability assay.

CAL-51 = conditions: Homo sapiens, CAL-51
Description: SANGER: Inhibition of human CAL-51 cell growth in a cell viability assay.

CAL-72 = conditions: Homo sapiens, CAL-72
Description: SANGER: Inhibition of human CAL-72 cell growth in a cell viability assay.

UACC-893 = conditions: Homo sapiens, UACC-893
Description: SANGER: Inhibition of human UACC-893 cell growth in a cell viability assay.

YAPC = conditions: Homo sapiens, YAPC
Description: SANGER: Inhibition of human YAPC cell growth in a cell viability assay.

YKG-1 = conditions: Homo sapiens, YKG-1
Description: SANGER: Inhibition of human YKG-1 cell growth in a cell viability assay.

## O=C(O)c1ccc(-c2c[nH]c3ncc(-c4ccccc4)cc23)cc1C1CCCC1 [GSK-650394]
DK-MG
  IC50: > 16 µM
DMS-153
  IC50: > 16 µM
EB-3
  IC50: > 16 µM
ECC4
  IC50: > 16 µM
ESS-1
  IC50: > 16 µM
FaDu
  IC50: > 16 µM
G-401
  IC50: > 16 µM
GDM-1
  IC50: 0.879 µM
H4
  IC50: > 16 µM
HCC1806
  IC50: > 16 µM
HPAF-II
  IC50: > 16 µM
HTC-C3
  IC50: 10.7 µM
JIYOYE
  IC50: > 16 µM
KARPAS-422
  IC50: > 16 µM
KMS-12-PE
  IC50: > 16 µM
KYSE-140
  IC50: 8.09 µM
KYSE-450
  IC50: 5.6 µM
LK-2
  IC50: > 16 µM
LP-1
  IC50: > 16 µM
MC-IXC
  IC50: > 16 µM
MG-63
  IC50: > 16 µM
MKN-45
  IC50: > 16 µM
NCI-H1792
  IC50: > 16 µM
NCI-H1793
  IC50: > 16 µM
NCI-H2009
  IC50: 3.76 µM
NCI-H2122
  IC50: 3.33 µM
NCI-H2405
  IC50: > 16 µM
NCI-H460
  IC50: 3.4 µM
NCI-H650
  IC50: 6.64 µM
P12-Ichikawa
  IC50: > 16 µM
P31-FUJ
  IC50: > 16 µM
RT-112
  IC50: 1.03 µM
SK-N-AS
  IC50: > 16 µM
SNU-C1
  IC50: > 16 µM
SW1088
  IC50: > 16 µM
SW1710
  IC50: 2.7 µM
SW837
  IC50: > 16 µM
769-P
  IC50: 4.89 µM
AGS
  IC50: 8.56 µM
ARH-77
  IC50: > 16 µM
BOKU
  IC50: > 16 µM
CAL-27
  IC50: 5.33 µM
CAL-39
  IC50: 9.31 µM
CAL-51
  IC50: 5.36 µM
CAL-72
  IC50: > 16 µM
UACC-893
  IC50: > 16 µM
YAPC
  IC50: > 16 µM
YKG-1
  IC50: 7.39 µM

## Nc1ccn([C@@H]2O[C@H](CO)[C@@H](O)C2(F)F)c(=O)n1 [GEMCITABINE]
DK-MG
  IC50: > 1.02 µM
DMS-153
  IC50: > 1.02 µM
EB-3
  IC50: > 1.02 µM
ECC4
  IC50: > 1.02 µM
ESS-1
  IC50: < 0.004 µM
FaDu
  IC50: 0.105 µM
G-401
  IC50: 0.0552 µM
GDM-1
  IC50: 0.0625 µM
H4
  IC50: 0.00218 µM
HCC1806
  IC50: 0.00291 µM
HPAF-II
  IC50: 0.428 µM
HTC-C3
  IC50: 0.996 µM
JIYOYE
  IC50: 0.0394 µM
KARPAS-422
  IC50: 0.0858 µM
KMS-12-PE
  IC50: > 1.02 µM
KYSE-140
  IC50: 0.0279 µM
KYSE-450
  IC50: 0.00632 µM
LK-2
  IC50: > 1.02 µM
LP-1
  IC50: > 1.02 µM
MC-IXC
  IC50: 0.00226 µM
MG-63
  IC50: 0.00133 µM
MKN-45
  IC50: 0.0177 µM
NCI-H1792
  IC50: 0.259 µM
NCI-H1793
  IC50: 0.224 µM
NCI-H2009
  IC50: < 0.004 µM
NCI-H2122
  IC50: < 0.004 µM
NCI-H2405
  IC50: 0.0191 µM
NCI-H460
  IC50: 0.0135 µM
NCI-H650
  IC50: 0.566 µM
P12-Ichikawa
  IC50: 0.0847 µM
P31-FUJ
  IC50: > 1.02 µM
RT-112
  IC50: < 0.004 µM
SK-N-AS
  IC50: > 1.02 µM
SNU-C1
  IC50: > 1.02 µM
SW1088
  IC50: > 1.02 µM
SW1710
  IC50: < 0.004 µM
SW837
  IC50: 0.0276 µM
769-P
  IC50: < 0.004 µM
AGS
  IC50: < 0.004 µM
ARH-77
  IC50: < 0.004 µM
BOKU
  IC50: 0.254 µM
CAL-27
  IC50: 0.0352 µM
CAL-39
  IC50: > 1.02 µM
CAL-51
  IC50: 0.191 µM
CAL-72
  IC50: > 1.02 µM
UACC-893
  IC50: > 1.02 µM
YAPC
  IC50: > 1.02 µM
YKG-1
  IC50: < 0.004 µM
